Molecular target: human PDE10A2 (Homo sapiens (Human), UniProt Q9Y233)
Test: PDE10 fluorescence polarization (IMAP FP) inhibition assay
Format: biochemical
Details: human PDE10A2 from transfected AD293 cells; FAM-labeled cAMP 50 nM; apparent inhibition constant; read-out: PDE10A Ki
Description: The activity of the compounds in accordance with the present invention as PDE10 inhibitors may be readily determined without undue experimentation using a fluorescence polarization (FP) methodology that is well known in the art (Huang, W., et al., J. Biomol Screen, 2002, 7: 215).
In a typical experiment the PDE10 inhibitory activity of the compounds of the present invention was determined in accordance with the following experimental method. PDE10A2 was amplified from human fetal brain cDNA (Clontech, Mountain View, Calif.) using a forward primer corresponding to nucleotides 56-77 of human PDE10A2 (Accession No. AF127480, Genbank Identifier 4894716), containing a Kozak consensus sequence, and a reverse primer corresponding to nucleotides 2406-2413 of human PDE10A2 (Accession No. AF127480, Genbank Identifier 4894716). Amplification with Easy-A polymerase (Stratagene, La Jolla, Calif.) was 95° C. for 2 minutes followed by thirty three cycles of 95° C. for 40 seconds, 55° C. for 30 seconds, and 72° C. for 2 minutes 48 seconds. Final extension was 72° C. for 7 minutes. The PCR product was TA cloned into pcDNA3.2-TOPO (Invitrogen, Carlsbad, Calif.) according to standard protocol. AD293 cells with 70-80% confluency were transiently transfected with human PDE10A2/pcDNA3.2-TOPO using Lipofectamine 2000 according to manufacturer specifications (Invitrogen, Carlsbad, Calif.). Cells were harvested 48 hours post-transfection and lysed by sonication (setting 3, 10×5 sec pulses) in a buffer containing 20 mM HEPES, 1 mM EDTA and protease inhibitor cocktail (Roche). Lysate was collected by centrifugation at 75,000×g for 20 minutes. Supernatant containing the cytoplasmic fraction was used for evaluation of PDE10A2 activity. The fluorescence polarization assay for cyclic nucleotide phosphodiesterases was performed using an IMAP® FP kit supplied by Molecular Devices, Sunnyvale, Calif. (product # R8139). IMAP® technology has been applied previously to phosphodiesterase assays (Huang, W., et al., J. Biomol Screen, 2002, 7: 215). Assays were performed at room temperature in 384-well microtiter plates with an incubation volume of 20.2 μL. Solutions of test compounds were prepared in DMSO and serially diluted with DMSO to yield 8 μL of each of 10 solutions differing by 3-fold in concentration, at 32 serial dilutions per plate. […] 0% of inhibition is determined by using DMSO (1% final concentrations).
A Labcyte Echo 555 (Labcyte, Sunnyvale, Calif.) is used to dispense 200 nL from each well of the titration plate to the 384 well assay plate. A solution of enzyme (1/1600 dilution from aliquots; sufficient to produce 20% substrate conversion) and a separate solution of FAM-labeled cAMP PDE from Molecular Devices (product # R7506), at a final concentration of 50 nM are made in the assay buffer (10 mM Tris HCl, pH 7.2, 10 mM MgCl2, 0.05% NaN3 0.01% Tween-20, and 1 mM DTT). The enzyme and the substrate are then added to the assay plates in two consecutive additions of 10 μL, and then shaken to mix. The reaction is allowed to proceed at room temperature for 30 minutes. […] The enzymatic reaction is stopped by addition of 60 μL of the binding solution to each well of the assay plates and the plates are sealed and shaken for 10 seconds. The plate was incubated at room temperature for at least one hour prior to determining the fluorescence polarization (FP). The parallel and perpendicular fluorescence of each well of the plate was measured using a Perkin Elmer EnVision™ plate reader (Waltham, Mass.).
Fluorescence polarization (mP) was calculated from the parallel (S) and perpendicular (P) fluorescence of each sample well and the analogous values for the median control well, containing only substrate (So and Po), using the following equation: Polarization(mP)=1000*(S/So−P/Po)/(S/So+P/Po).
Dose-inhibition profiles for each compound were characterized by fitting the mP data to a four-parameter equation given below.

human PDE10A2, sequence (Q9Y233 267-1055): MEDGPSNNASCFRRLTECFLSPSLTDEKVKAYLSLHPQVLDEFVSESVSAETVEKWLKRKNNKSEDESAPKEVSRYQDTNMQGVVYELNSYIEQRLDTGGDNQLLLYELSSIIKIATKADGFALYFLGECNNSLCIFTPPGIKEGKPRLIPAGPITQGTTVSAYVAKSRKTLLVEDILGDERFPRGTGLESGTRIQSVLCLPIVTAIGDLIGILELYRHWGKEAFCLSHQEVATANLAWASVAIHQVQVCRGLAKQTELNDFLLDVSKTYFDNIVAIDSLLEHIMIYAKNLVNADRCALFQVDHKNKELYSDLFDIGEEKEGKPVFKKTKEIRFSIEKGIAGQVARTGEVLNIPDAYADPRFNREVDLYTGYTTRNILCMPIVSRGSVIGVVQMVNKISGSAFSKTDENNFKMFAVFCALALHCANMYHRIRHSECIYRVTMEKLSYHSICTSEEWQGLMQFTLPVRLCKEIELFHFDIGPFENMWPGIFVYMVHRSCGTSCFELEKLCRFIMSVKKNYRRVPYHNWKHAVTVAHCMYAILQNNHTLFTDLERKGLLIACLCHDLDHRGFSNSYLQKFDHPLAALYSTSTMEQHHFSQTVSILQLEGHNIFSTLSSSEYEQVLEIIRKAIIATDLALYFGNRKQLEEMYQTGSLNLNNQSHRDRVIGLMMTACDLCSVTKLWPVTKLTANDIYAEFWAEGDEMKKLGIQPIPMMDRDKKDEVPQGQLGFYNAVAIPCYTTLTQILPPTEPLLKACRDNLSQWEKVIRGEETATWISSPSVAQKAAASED

| SMILES | Ki |
| --- | --- |
| COc1ccc([C@H]2C[C@@H]2COc2nc(C)ncc2-c2ccnc(OC(C)C)c2)nc1 [Example 74, 5-(2-isopropoxypyridin-4-yl)-4-(((1S,2S)-2-(5-methoxypyridin-2-yl)cyclopropyl)methoxy)-2-methylpyrimidine] | 0.18 nM |
| Cc1ccnc([C@H]2C[C@@H]2COc2nc(C)ncc2-c2cn(C)nc2C(C)O)c1 (stereo partly drawn) [Example 159, 1-(1-methyl-4-(2-methyl-4-(((1S,2S)-2-(4-methylpyridin-2-yl)cyclopropyl)methoxy)pyrimidin-5-yl)-1H-pyrazol-3-yl)ethanol] | 1.47 nM |
| COCCOc1ccc(-c2cnc(C)nc2OC[C@H]2C[C@@H]2c2ccc(C)cn2)cn1 [Example 57, 5-(6-(2-methoxyethoxy)pyridin-3-yl)-2-methyl-4-(((1S,2S)-2-(5-methylpyridin-2-yl)cyclopropyl)methoxy)pyrimidine] | 0.57 nM |
| COc1ccc([C@H]2C[C@@H]2COc2nc(C)ncc2-c2ccc(-c3ncon3)cc2)nc1 [Example 250, 3-(4-(4-(((1S,2S)-2-(5-methoxypyridin-2-yl)cyclopropyl)methoxy)-2-methylpyrimidin-5-yl)phenyl)-1,2,4-oxadiazole] | 1.16 nM |
| COc1ccc([C@H]2C[C@@H]2COc2nc(C)ncc2-c2ccc(OCC3CC3)nc2)nc1 [Example 72, 5-(6-(cyclopropylmethoxy)pyridin-3-yl)-4-(((1S,2S)-2-(5-methoxypyridin-2-yl)cyclopropyl)methoxy)-2-methylpyrimidine] | 0.5 nM |
| COc1ccc([C@H]2C[C@@H]2COc2nc(C)ncc2-c2cc(C#N)n(C)c2)nc1 [Example 113, 4-(4-(((1S,2S)-2-(5-methoxypyridin-2-yl)cyclopropyl)methoxy)-2-methylpyrimidin-5-yl)-1-methyl-1H-pyrrole-2-carbonitrile] | 0.89 nM |
| COc1cc(-c2cnc(C)nc2OC[C@H]2C[C@@H]2c2ccc(C)cn2)cnn1 [Example 56, 3-methoxy-5-(2-methyl-4-(((1S,2S)-2-(5-methylpyridin-2-yl)cyclopropyl)methoxy)pyrimidin-5-yl)pyridazine] | 6.12 nM |
| Cc1ncc([C@H]2CC[C@H](O)CC2)c(OC[C@H]2C[C@@H]2c2ccccn2)n1 [Example 199, Trans-4-(2-methyl-4-(((1S,2S)-2-(pyridin-2-yl)cyclopropyl)methoxy)pyrimidin-5-yl)cyclohexanol] | 4.79 nM |
| COc1ccc([C@H]2C[C@@H]2COc2nc(C)ncc2[C@H]2CC[C@@H](O)C2)nc1 [Example 79, (1R,3S)-3-(4-(((1S,2S)-2-(5-methoxypyridin-2-yl)cyclopropyl)methoxy)-2-methylpyrimidin-5-yl)cyclopentanol] | 5.6 nM |
| Cc1cccc([C@H]2C[C@@H]2COc2nc(C)ncc2-c2ccc(C(C)(C)O)nc2)n1 (single isomer, unassigned) [Example 175] | 0.2 nM |
| COc1ccc([C@H]2C[C@@H]2COc2nc(C)ncc2C2=CCOCC2)nc1 [Example 115, 5-(3,6-dihydro-2H-pyran-4-yl)-4-(((1S,2S)-2-(5-methoxypyridin-2-yl)cyclopropyl)methoxy)-2-methylpyrimidine] | 0.76 nM |
| Cc1ncc(-c2ccc(C(C)O)cc2)c(OC[C@H]2C[C@@H]2c2ccccn2)n1 (stereo partly drawn) [Example 122, 1-(4-(2-methyl-4-(((1S,2S)-2-(pyridin-2-yl)cyclopropyl)methoxy)pyrimidin-5-yl)phenyl)ethanol] | 2.85 nM |
| COc1ccc([C@H]2C[C@@H]2COc2nc(C)ncc2-c2nnn(C(F)F)n2)nc1 [Example 237, 5-(2-(difluoromethyl)-2H-tetrazol-5-yl)-4-(((1S,2S)-2-(5-methoxypyridin-2-yl)cyclopropyl)methoxy)-2-methylpyrimidine] | 32.9 nM |
| Cc1ncc(-c2ccc(C(F)(F)F)nc2)c(OC[C@H]2C[C@@H]2c2ccc3ccccc3n2)n1 [Example 156, 2-((1S,2S)-2-((2-methyl-5-(6-(trifluoromethyl)pyridin-3-yl)pyrimidin-4-yloxy)methyl)cyclopropyl)quinoline] | 0.12 nM |
| Cc1ccc([C@H]2C[C@@H]2COc2nc(C)ncc2-c2ccc3ncc(C)n3c2)nc1 [Example 130, 3-methyl-6-(2-methyl-4-(((1S,2S)-2-(5-methylpyridin-2-yl)cyclopropyl)methoxy)pyrimidin-5-yl)imidazo[1,2-a]pyridine] | 0.39 nM |
| Cc1ccc([C@H]2C[C@@H]2COc2nc(C)ncc2-c2cnnc(Br)c2)nc1 [Example 59, 3-bromo-5-(2-methyl-4-(((1S,2S)-2-(5-methylpyridin-2-yl)cyclopropyl)methoxy)pyrimidin-5-yl)pyridazine] | 4.34 nM |
| Cc1ccc([C@H]2C[C@@H]2COc2nc(C)ncc2-c2cc(C)ccc2C)nc1 [Example 13, 5-(2,5-dimethylphenyl)-2-methyl-4-(((1S,2S)-2-(5-methylpyridin-2-yl)cyclopropyl)methoxy)pyrimidine] | 0.7 nM |
| COc1ccc([C@H]2C[C@@H]2COc2nc(C)ncc2-c2cc(OC)nn2C)nc1 [Example 240, 5-(3-methoxy-1-methyl-1H-pyrazol-5-yl)-4-(((1S,2S)-2-(5-methoxypyridin-2-yl)cyclopropyl)methoxy)-2-methylpyrimidine] | 29.9 nM |
| COc1ccc([C@H]2C[C@@H]2COc2nc(C)ncc2-c2ccc(-c3nc(C)no3)cc2)nc1 [Example 253, 5-(4-(4-(((1S,2S)-2-(5-methoxypyridin-2-yl)cyclopropyl)methoxy)-2-methylpyrimidin-5-yl)phenyl)-3-methyl-1,2,4-oxadiazole] | 3.02 nM |
| Cc1ccc([C@H]2C[C@@H]2COc2nc(C)ncc2-c2ccc3nccn3c2)nc1 [Example 137, 6-(2-methyl-4-(((1S,2S)-2-(5-methylpyridin-2-yl)cyclopropyl)methoxy)pyrimidin-5-yl)imidazo[1,2-a]pyridine] | 0.63 nM |
| COc1cc(-c2cnc(C)nc2OC[C@H]2C[C@@H]2c2ccc(C)cn2)cc2nccn12 [Example 132, 5-methoxy-7-(2-methyl-4-(((1S,2S)-2-(5-methylpyridin-2-yl)cyclopropyl)methoxy)pyrimidin-5-yl)imidazo[1,2-a]pyridine] | 0.81 nM |
| COc1ccc([C@H]2C[C@@H]2COc2nc(C)ncc2-c2c[nH]oc2=O)nc1 [Example 242, 4-(4-(((1S,2S)-2-(5-methoxypyridin-2-yl)cyclopropyl)methoxy)-2-methylpyrimidin-5-yl)isoxazol-5(2H)-one] | 2.36 nM |
| Cc1ncc(-c2ccc(C(F)(F)F)nc2)c(OC[C@H]2C[C@@H]2c2ccccn2)n1 [Example 117, 2-methyl-4-(((1S,2S)-2-(pyridin-2-yl)cyclopropyl)methoxy)-5-(6-(trifluoromethyl)pyridin-3-yl)pyrimidine] | 23.5 nM |
| COc1ccc([C@H]2C[C@@H]2COc2nc(C)ncc2-c2cc(Cl)ncc2C(F)(F)F)nc1 [Example 88, 5-(2-chloro-5-(trifluoromethyl)pyridin-4-yl)-4-(((1S,2S)-2-(5-methoxypyridin-2-yl)cyclopropyl)methoxy)-2-methylpyrimidine] | 0.99 nM |
| Cc1ccc([C@H]2C[C@@H]2COc2nc(C)ncc2[C@H]2CC[C@@](C)(O)CC2)nc1 [Example 212, (cis)1-Methyl-4-(2-methyl-4-(((1S,2S)-2-(5-methylpyridin-2-yl)cyclopropyl)methoxy)pyrimidin-5-yl)cyclohexanol] | 12.4 nM |
| Cc1ccnc([C@H]2C[C@@H]2COc2nc(C)ncc2C2CCC3(CC2)OCCO3)c1 [Example 201, 2-methyl-4-(((1S,2S)-2-(4-methylpyridin-2-yl)cyclopropyl)methoxy)-5-(1,4-dioxaspiro[4.5]decan-8-yl)pyrimidine] | 17.1 nM |

— patent US9663513B2, “Pyrimidine PDE10 inhibitors” (Merck Sharp & Dohme Corp., priority 2012, dated 2017)
